Experiments:
[1] = target: DLK (Homo sapiens (Human), UniProt Q12852); assay: DLK biochemical assay (TR-FRET, MKK7 phosphorylation)
Summary of the method: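 TR-FRET ratio (665/Eu) reports MKK7 T275/S277 phosphorylation, lowered by DLK inhibition. Reaction: 60 μM ATP, 15 nM MKK7, 10 nM DLK catalytic domain, 90 min room temperature; detection incubation 16 h, 37° C. (1536-well) or 4° C. (384-well). Final concentrations.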

[2] = target: LZK (Homo sapiens (Human), UniProt O43283); assay: LZK biochemical assay (TR-FRET, MKK7 phosphorylation)
Sequence of LZK (O43283 168-409): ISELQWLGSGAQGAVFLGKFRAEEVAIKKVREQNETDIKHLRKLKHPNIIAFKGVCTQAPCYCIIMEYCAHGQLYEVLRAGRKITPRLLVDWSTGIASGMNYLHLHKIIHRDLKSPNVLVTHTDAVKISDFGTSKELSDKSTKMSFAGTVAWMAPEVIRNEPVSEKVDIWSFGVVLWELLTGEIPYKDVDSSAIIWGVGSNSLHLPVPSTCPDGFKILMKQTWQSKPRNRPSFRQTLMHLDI
Summary of the method: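 Readout is the HTRF ratio (XL665/Eu) from an EDTA-containing detection mix of 0.4 nM Eu-anti-phospho-MKK7 (T275/S277) and 20 nM XL665-anti-His, incubated 16 h at 32° C. This followed a 90 min RT reaction of 10 nM LZK catalytic domain, 15 nM MKK7 and 15 μM ATP at pH 7.5.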

Sequence of DLK (Q12852 1-520): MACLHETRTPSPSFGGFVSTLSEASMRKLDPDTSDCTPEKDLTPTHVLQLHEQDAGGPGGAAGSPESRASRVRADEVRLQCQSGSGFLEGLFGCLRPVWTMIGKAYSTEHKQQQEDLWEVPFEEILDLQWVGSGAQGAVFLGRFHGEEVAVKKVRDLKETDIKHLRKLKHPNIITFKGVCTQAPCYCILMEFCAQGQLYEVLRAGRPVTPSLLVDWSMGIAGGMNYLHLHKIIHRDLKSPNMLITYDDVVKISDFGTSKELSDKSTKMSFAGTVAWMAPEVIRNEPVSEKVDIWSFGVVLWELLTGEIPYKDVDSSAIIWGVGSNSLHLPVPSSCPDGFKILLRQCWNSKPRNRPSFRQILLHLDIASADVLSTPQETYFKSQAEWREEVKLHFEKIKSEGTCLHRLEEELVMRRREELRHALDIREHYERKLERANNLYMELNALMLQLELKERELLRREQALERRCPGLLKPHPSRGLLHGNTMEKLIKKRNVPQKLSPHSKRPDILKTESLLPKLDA

IC50 [1] [nM] | IC50 [2] [nM] | SMILES
255 | > 30000 | Nc1nc2ccc(-c3csc(C(=O)N[C@H](c4ccccc4)C(F)(F)F)c3)cn2n1 [Compound 326]
280 | 9300 | Cc1cc(-c2csc(C(=O)NC3CCCCC3)c2)cn2nc(N)nc12 [Compound 374]
160 | > 30000 | C[C@H](NC(=O)c1cc(-c2ccc3nc(N)nn3c2)cs1)c1ccccc1F [Compound 359]
150 | 3100 | CC(NC(=O)c1cc(-c2ccc3nc(N)nn3c2)cs1)c1nc2c(s1)CCCC2 (centres unmarked) [Compound 332]
69 | 1900 | CC[C@H](NC(=O)c1cc(-c2cc(-c3cnn(CC(F)(F)F)c3)n3nc(N)nc3c2)cs1)c1ccc(F)cc1 [Compound 402]
79 | 29000 | Nc1nc2ccc(-c3csc(C(=O)NC(c4ccccc4)C4CC4)c3)cn2n1 (centres unmarked) [Compound 346]
11000 | > 30000 | CCNS(=O)(=O)c1cc(-c2csc(C(=O)N[C@@H](C)c3ccc(F)cc3)c2)cn2nc(N)nc12 [Compound 385]
180 | 4700 | CC1(C)CC(NC(=O)c2cc(-c3ccc4nc(N)nn4c3)cs2)c2ccccc2O1 (centres unmarked) [Compound 316]
190 | > 30000 | CCC(NC(=O)c1cc(-c2ccc3nc(N)nn3c2)cs1)c1ccc(F)cc1 (centres unmarked) [Compound 338]
420 | 15000 | Cn1cccc1CNC(=O)c1cc(-c2ccc3nc(N)nn3c2)cs1 [Compound 276]
530 | > 30000 | Nc1nc2ccc(-c3csc(C(=O)NCCc4c(F)cccc4Cl)c3)cn2n1 [Compound 283]
580 | 22000 | Nc1nc2ccc(-c3csc(C(=O)NCc4ccccc4C(F)(F)F)c3)cn2n1 [Compound 220]
100 | 830 | CC(C)c1nnc(-c2cc(-c3csc(C(=O)N[C@@H](C)c4ccc(F)cc4)c3)cn3nc(N)nc23)s1 [Compound 392]
3500 | > 30000 | COCCCNC(=O)c1cc(-c2ccc3nc(N)nn3c2)cs1 [Compound 271]
75.5 | 1130 | C[C@H](NC(=O)c1cc(-c2ccc3nc(N)nn3c2)cs1)c1ccc(F)cc1 [Compound 302]
67 | 3700 | CCC[C@H](NC(=O)c1cc(-c2ccc3nc(N)nn3c2)cs1)c1ccccc1 [Compound 321]
520 | > 30000 | Nc1nc2ccc(-c3csc(C(=O)NC4CCCC4)c3)cn2n1 [Compound 170]
97 | 3600 | Nc1nc2ccc(-c3csc(C(=O)NC4CCOc5ccccc54)c3)cn2n1 (centres unmarked) [Compound 317]
1200 | > 30000 | C[C@H]1CCC[C@H](NC(=O)c2cc(-c3ccc4nc(N)nn4c3)cs2)C1 (single isomer, unassigned) [Compound 199]
760 | 20500 | CC(NC(=O)c1cc(-c2ccc3nc(N)nn3c2)cs1)c1nccn1C (centres unmarked) [Compound 350]
1000 | 10000 | COc1cccc(CNC(=O)c2cc(-c3ccc4nc(N)nn4c3)cs2)n1 [Compound 254]
970 | 20000 | Nc1nc2c(C(F)(F)F)cc(-c3csc(C(=O)NC4CCCCC4)c3)cn2n1 [Compound 379]
670 | > 30000 | Cc1cccc(CNC(=O)c2cc(-c3ccc4nc(N)nn4c3)cs2)c1 [Compound 194]
120 | 6600 | Nc1nc2ccc(-c3csc(C(=O)NC4(c5ccc(F)cc5)CCC4)c3)cn2n1 [Compound 309]

More lines, now with the values behind:

SMILES | IC50 [1] [nM] | IC50 [2] [nM]
CNC(=O)c1cc(-c2csc(C(=O)NCc3ccccc3)c2)cn2nc(N)nc12 [Compound 10] | 120 | 990
CC[C@H](NC(=O)c1cc(-c2cc(C(=O)N[C@@H](C)COC)c3nc(N)nn3c2)cs1)c1ccccc1 [Compound 81] | 10 | 140
Nc1nc2c(C(=O)NC3COC3)cc(-c3csc(C(=O)NCc4ccccc4)c3)cn2n1 [Compound 64] | 200 | 7000
C[C@@H](CO)NC(=O)c1cc(-c2csc(C(=O)N(C)[C@@H](C)c3ccc(F)cc3)c2)cn2nc(N)nc12 [Compound 110] | 82 | 470
Nc1nc2c(C(=O)NC3CNC3)cc(-c3csc(C(=O)NCc4ccc(F)cc4)c3)cn2n1 [Compound 113] | 220 | 660
CC(NC(=O)c1cc(-c2csc(C(=O)N[C@@H](C)c3ccccc3)c2)cn2nc(N)nc12)C(F)(F)F (single isomer, unassigned) [Compound 72] | 89 | 6200
CC[C@H](NC(=O)c1cc(-c2cc(C(=O)NC(C)CF)c3nc(N)nn3c2)cs1)c1ccc(F)cc1 (some centres unmarked) [Compound 144-1] | 4.6 | 42
C[C@H](NC(=O)c1cc(-c2cc(C(=O)NC3CNC(=O)C3)c3nc(N)nn3c2)cs1)c1ccc(F)cc1 (single isomer, unassigned) [Compound 48] | 2.4 | 77
CC(C)NC(=O)c1cc(-c2csc(C(N)=O)c2)cn2nc(N)nc12 [Compound 85] | 360 | 900
C[C@H](NC(=O)c1cc(-c2cc(C(=O)NC3CNC(=O)C3)c3nc(N)nn3c2)cs1)c1ccccc1 (single isomer, unassigned) [Compound 55] | 88 | 6500
COC[C@H](C)NC(=O)c1cc(-c2csc(C(=O)N[C@@H](C)c3ccccc3)c2)cn2nc(N)nc12 [Compound 70] | 76 | 1400
COc1cccc(C(C)(C)NC(=O)c2cc(-c3cc(C(=O)NC(C)C)c4nc(N)nn4c3)cs2)c1 [Compound 125] | 18 | 220
C[C@H](NC(=O)c1cc(-c2cc(C(=O)NC3CNC3)c3nc(N)nn3c2)cs1)c1ccc(F)cc1 [Compound 114] | 47 | 710
CC(C)NC(=O)c1cc(-c2csc(C(=O)NC3CCCCC3)c2)cc2nc(N)nn12 [Compound 150] | 46 | 490
CC[C@H](C)NC(=O)c1cc(-c2csc(C(=O)NCc3ccc(F)cc3)c2)cn2nc(N)nc12 [Compound 93] | 11 | 41
Cc1ccc([C@H](C)NC(=O)c2cc(-c3cc(C(=O)N[C@H]4CCOC4)c4nc(N)nn4c3)cs2)cc1 [Compound 106] | 11 | 160
C[C@H](NC(=O)c1cc(-c2cc(C(=O)NC3CCNC3)c3nc(N)nn3c2)cs1)c1ccc(F)cc1 (single isomer, unassigned) [Compound 66] | 88 | 3500
C[C@H](NC(=O)c1cc(-c2cc(C(=O)NC3CNC(=O)C3)c3nc(N)nn3c2)cs1)c1ccccc1 (single isomer, unassigned) [Compound 54] | 2.3 | 30
C[C@H](NC(=O)c1cc(-c2cc(C(=O)NC3COC3)c3nc(N)nn3c2)cs1)c1ccccc1 [Compound 65] | 100 | 19000
C[C@H](NC(=O)c1cc(-c2cc(C(=O)NCC(F)(F)F)c3nc(N)nn3c2)cs1)c1ccccc1 [Compound 62] | 120 | 10000
Nc1nc2ccc(-c3csc(C(=O)NC4CCCCC4)c3)cn2n1 [Compound 169] | 1100 | > 30000
CC(C)NC(=O)c1cc(-c2csc(C(=O)N[C@@H](C)c3ccc(F)cc3)c2)cc2nc(N)nn12 [Compound 147] | 21 | 100
